In patent publication US10047086B2, “Imidazopyridines and imidazopyrazines as LSD1 inhibitors” (Incyte Corporation, priority 2014, dated 2018) one finds IC50 data, which are given here for 21 compounds.

For the assay, the target named is LSD-1 enzyme (Homo sapiens (Human), UniProt O60341). The experiment in a line: LANCE LSD1/KDM1A demethylase assay (LSD1 histone demethylase biochemical assay). The following applies: 1 nM LSD-1 enzyme, 1 hour preincubation at 25° C., 0.4 μM Biotin-labeled Histone H3 peptide substrate. On the procedure: LSD1 Histone Demethylase Biochemical Assay
LANCE LSD1/KDM1A demethylase assay-10 μL of 1 nM LSD-1 enzyme (ENZO BML-SE544-0050) in the assay buffer (50 mM Tris, pH 7.5, 0.01% Tween-20, 25 mM NaCl, 5 mM DTT) were preincubated for 1 hour at 25° C. with 0.8 μL compound/DMSO dotted in black 384 well polystyrene plates. […] Reactions were stopped by addition of 10 μL 1× LANCE Detection Buffer (PerkinElmer CR97-100) supplemented with 1.5 nM Eu-anti-unmodified H3K4 Antibody (PerkinElmer TRF0404), and 225 nM LANCE Ultra Streptavidin (PerkinElmer TRF102) along with 0.9 mM Tranylcypromine-HCl (Millipore 616431). After stopping the reactions plates were incubated for 30 minutes and read on a PHERAstar FS plate reader (BMG Labtech).
(Time-resolved FRET reads energy transfer from a long-lived donor to a nearby acceptor.)

SMILES strings stand for the structures. Bounds are passed on as bounds.

On to `Cc1nc2cc(-c3c(-c4ccc(C#N)cc4)nc(OC[C@@H]4CCCN(C)C4)c4cncn34)ccc2s1` [Example 35, 4-(5-(2-methyl-1,3-benzothiazol-5-yl)-8-{[(3R)-1-methylpiperidin-3-yl]methoxy}imidazo[1,5-a]pyrazin-6-yl)benzonitrile], for which the IC50 was ≤ 0.05 µM. For `CN1C(=O)OCc2cc(-c3c(-c4ccc(C#N)cc4)nc(N4CCC(N(C)C)CC4)c4cncn34)ccc21` [Example 106, 4-[8-[4-(dimethylamino)piperidin-1-yl]-5-(1-methyl-2-oxo-1,4-dihydro-2H-3,1-benzoxazin-6-yl)imidazo[1,5-a]pyrazin-6-yl]benzonitrile], the IC50 was ≤ 0.05 µM. The same measure for `CN1CCC[C@@H](COc2cc(-c3ccc(C#N)cc3)c(-c3cnc4c(c3)ncn4C)n3cncc23)C1` [Example 58, (R)-4-(5-(3-methyl-3H-imidazo[4,5-b]pyridin-6-yl)-8-((1-methylpiperidin-3-yl)methoxy)imidazo[1,5-a]pyridin-6-yl)benzonitrile]: ≤ 0.05 µM; for `CN1CCC[C@@H](COc2cc(-c3ccc(C#N)cc3)c(-c3cnn(C4CCC4)c3)n3cncc23)C1` [Example 134, 4-(5-(1-cyclobutyl-1H-pyrazol-4-yl)-8-{[(3R)-1-methylpiperidin-3-yl]methoxy}imidazo[1,5-a]pyridin-6-yl)benzonitrile]: ≤ 0.05 µM; for `CN(C)C1CCN(c2nc(-c3ccc(C#N)cc3)c(-c3ccc4nccnc4c3)n3cncc23)CC1` [Example 103, 4-(8-(4-(dimethylamino)piperidin-1-yl)-5-(quinoxalin-6-yl)imidazo[1,5-a]pyrazin-6-yl)benzonitrile]: ≤ 0.05 µM. As for `N#Cc1ccc(-c2cc(OC[C@@H]3CCNC3)c3cncn3c2-c2ccc(CCN3CCOCC3)cc2)cc1` [Example 18, 4-{5-[4-(2-morpholin-4-ylethyl)phenyl]-8-[(3R)-pyrrolidin-3-ylmethoxy]imidazo[1,5-a]pyridin-6-yl}benzonitrile], the IC50 was ≤ 0.05 µM. For `Cn1ncc2cc(-c3c(-c4ccc(C#N)cc4)nc(OC[C@@H]4CCCN(CCC#N)C4)c4cncn34)cnc21` [Example 38, 4-[8-{[(3R)-1-(2-cyanoethyl)piperidin-3-yl]methoxy}-5-(1-methyl-1H-1-pyrazolo[3,4-b]pyridin-5-yl)imidazo[1,5-a]pyrazin-6-yl]benzonitrile], the IC50 is ≤ 0.05 µM. As for `COc1ncc(-c2c(-c3ccc(C#N)cc3)nc(N3CCC(N(C)C)CC3)c3cncn23)cc1F` [Example 90, 4-[8-[4-(dimethylamino)piperidin-1-yl]-5-(5-fluoro-6-methoxypyridin-3-yl)imidazo[1,5-a]pyrazin-6-yl]benzonitrile], the IC50 was ≤ 0.05 µM.

For the compound `CCN1CCC[C@@H](COc2nc(-c3ccc(C#N)cc3)c(-c3cc4oc(=O)n(C)c4cc3F)n3cncc23)C1` [Example 111, 4-[8-{[(3R)-1-ethylpiperidin-3-yl]methoxy}-5-(5-fluoro-3-methyl-2-oxo-2,3-dihydro-1,3-benzoxazol-6-yl)imidazo[1,5-a]pyrazin-6-yl]benzonitrile], the half-inhibitory concentration (IC50) was ≤ 0.05 µM. On to `COCCN1CCC[C@@H](COc2cc(-c3ccc(C#N)cc3)c(-c3cnc(C)c(C)c3)n3cncc23)C1` [Example 130, 4-(5-(5,6-dimethylpyridin-3-yl)-8-{[(3R)-1-(2-methoxyethyl)piperidin-3-yl]methoxy}imidazo[1,5-a]pyridin-6-yl)benzonitrile], for which the IC50 was ≤ 0.05 µM. As for `CN1CCC[C@@H](COc2cc(-c3ccc(C#N)cc3)c(-c3cnc4c(c3)OCCN4C)n3cncc23)C1` [Example 116, (R)-4-(5-(4-methyl-3,4-dihydro-2H-pyrido[3,2-b][1,4]oxazin-7-yl)-8-((1-methylpiperidin-3-yl)methoxy)imidazo[1,5-a]pyridin-6-yl)benzonitrile], the figure is ≤ 0.05 µM; as for `CN(C)C1CCN(c2nc(-c3ccc(C#N)cc3)c(-c3ccc4c(c3)oc(=O)n4C)n3cncc23)CC1` [Example 51, 4-[8-[4-(dimethylamino)piperidin-1-yl]-5-(3-methyl-2-oxo-2,3-dihydro-1,3-benzoxazol-6-yl)imidazo[1,5-a]pyrazin-6-yl]benzonitrile], ≤ 0.05 µM. Consider `COc1ncc(-c2c(-c3ccc(C#N)cc3)nc(OC[C@@H]3CCCN(C)C3)c3cncn23)cc1F` [Example 43, 4-(5-(5-fluoro-6-methoxypyridin-3-yl)-8-{[(3R)-1-methylpiperidin-3-yl]methoxy}imidazo[1,5-a]pyrazin-6-yl)benzonitrile], for which the IC50 was ≤ 0.05 µM. Regarding `COCCN1CCC[C@@H](COc2cc(-c3ccc(C#N)cc3)c(-c3cnc4c(c3)OCCO4)n3cncc23)C1` [Example 115, (R)-4-(5-(2,3-dihydro-[1,4]dioxino[2,3-b]pyridin-7-yl)-8-((1-(2-methoxyethyl)piperidin-3-yl)methoxy)imidazo[1,5-a]pyridin-6-yl)benzonitrile], the IC50 is ≤ 0.05 µM.

With `CN1CCC[C@@H](COc2cc(-c3ccc(C#N)cc3)c(-c3ccc4c(c3)OCC(=O)N4C)n3cncc23)C1` [Example 65, (R)-4-(5-(4-methyl-3-oxo-3,4-dihydro-2H-benzo[b][1,4]oxazin-7-yl)-8-((1-methylpiperidin-3-yl)methoxy)imidazo[1,5-a]pyridin-6-yl)benzonitrile], the concentration for half-maximal inhibition (IC50) is ≤ 0.05 µM. On to `CCN1CCC[C@@H](COc2cc(-c3ccc(C#N)cc3)c(-c3cnc(C)c(C)c3)n3cncc23)C1` [Example 131, 4-(5-(5,6-dimethylpyridin-3-yl)-8-{[(3R)-1-ethylpiperidin-3-yl]methoxy}imidazo[1,5-a]pyridin-6-yl)benzonitrile], for which the IC50 is ≤ 0.05 µM.

For `CCN1CCC[C@@H](COc2cc(-c3ccc(C#N)cc3)c(-c3ccc4c(c3)CC(=O)N4C)n3cncc23)C1` [Example 114, (R)-4-(8-((1-ethylpiperidin-3-yl)methoxy)-5-(1-methyl-2-oxoindolin-5-yl)imidazo[1,5-a]pyridin-6-yl)benzonitrile], the 50% inhibitory concentration (IC50) is ≤ 0.05 µM. Consider `Cc1ncc(-c2c(-c3ccc(C#N)cc3)nc(N3CCC(N(C)C)CC3)c3cncn23)cc1F` [Example 97, 4-[8-[4-(dimethylamino)piperidin-1-yl]-5-(5-fluoro-6-methylpyridin-3-yl)imidazo[1,5-a]pyrazin-6-yl]benzonitrile], for which the IC50 was ≤ 0.05 µM.

As to `COc1ncc(-c2c(-c3ccc(C#N)cc3)nc(N3CCC(N(C)C)CC3)c3cncn23)cc1C#N` [Example 148, 5-{6-(4-cyanophenyl)-8-[4-(dimethylamino)piperidin-1-yl]imidazo[1,5-a]pyrazin-5-yl}-2-methoxynicotinonitrile], the IC50 is ≤ 0.05 µM. Consider `Cc1ncc(-c2c(-c3ccc(C#N)cc3)nc(N3CCC(N(C)C)CC3)c3cncn23)cc1CO` [Example 142, 4-{8-[4-(dimethylamino)piperidin-1-yl]-5-[5-(hydroxymethyl)-6-methylpyridin-3-yl]imidazo[1,5-a]pyrazin-6-yl}benzonitrile], for which the IC50 is ≤ 0.05 µM.

`COc1ncc(-c2c(-c3ccc(C#N)cc3)cc(OC[C@@H]3CCCN(C)C3)c3cncn23)cc1F` [Example 70, (R)-4-(5-(5-fluoro-6-methoxypyridin-3-yl)-8-((1-methylpiperidin-3-yl)methoxy)imidazo[1,5-a]pyridin-6-yl)benzonitrile]: the IC50 was ≤ 0.05 µM.

As a reminder, the IC50 is the concentration at which inhibition is half-maximal. Lower therefore signals inhibition by little substance.
